Source: EP4635500A1, “THERAPEUTIC AGENT FOR BACTERIAL INFECTION” (Sumitomo Pharma Co., Ltd., priority 2022, dated 2024)
Values after ≈ are worked out from the molar mass of the structure shown. Read-outs that look alike come from different tables or passages of the source.

Test system: Enterobacterales
Experiment: MIC, broth microdilution, CDC/FDA Antibiotic Resistance Isolate Bank (Example 7, Tables 8, 11, 12)
Type: cell-based
Conditions: for MIC: read-out: MIC

## O=C(O)c1cn(C2CC2)c2cc(N3CCNCC3)c(F)cc2c1=O [Ciprofloxacin, ciprofloxacin]
154 strains of Enterobacterales, read-out: MIC80
  MIC80: > 64 µg/mL
154 strains of Enterobacterales, read-out: MIC90
  MIC90: > 64 µg/mL
Citrobacter freundii, KUB No. 5654, AR Bank # 157
  MIC: > 64 µg/mL
Escherichia coli, Escherichia coli KUB No. 5783, AR Bank #437
  MIC: > 64 µg/mL
Escherichia coli, Escherichia coli KUB No. 5794, AR Bank #450
  MIC: 0.06 µg/mL (≈ 0.181 µM)
Escherichia coli, Escherichia coli KUB No. 5796, AR Bank #452
  MIC: > 64 µg/mL
Escherichia coli, KUB No. 5552, AR Bank# 55
  MIC: > 64 µg/mL
Escherichia coli, KUB No. 5558, AR Bank # 61
  MIC: ≤ 0.03 µg/mL
Escherichia coli, KUB No. 5564, AR Bank # 67
  MIC: > 64 µg/mL
Escherichia coli, KUB No. 5566, AR Bank # 69
  MIC: 0.06 µg/mL (≈ 0.181 µM)
Escherichia coli, KUB No. 5574, AR Bank # 77
  MIC: ≤ 0.03 µg/mL
Escherichia coli, KUB No. 5582, AR Bank # 85
  MIC: > 64 µg/mL
Escherichia coli, KUB No. 5586, AR Bank # 89
  MIC: ≤ 0.03 µg/mL
Escherichia coli, KUB No. 5616, AR Bank # 119
  MIC: > 64 µg/mL
Escherichia coli, KUB No. 5634, AR Bank # 137
  MIC: > 64 µg/mL
Escherichia coli, KUB No. 5764, AR Bank # 368
  MIC: ≤ 0.03 µg/mL
Escherichia coli, KUB No. 5765, AR Bank # 369
  MIC: 0.06 µg/mL (≈ 0.181 µM)
Escherichia coli, KUB No. 5766, AR Bank # 370
  MIC: > 64 µg/mL
Escherichia coli, KUB No. 5768, AR Bank # 372
  MIC: > 64 µg/mL
Escherichia coli, KUB No. 5770, AR Bank # 374
  MIC: > 64 µg/mL
Escherichia, KUB No. 57, AR Bank # 436 (row cut off)
  MIC: > 64 µg/mL
Klebsiella aerogenes, Enterobacter aerogenes, KUB No. 5559, AR Bank # 62
  MIC: 2 µg/mL (≈ 6.04 µM)
Klebsiella aerogenes, Enterobacter aerogenes, KUB No. 5571, AR Bank # 74
  MIC: 0.06 µg/mL (≈ 0.181 µM)
Klebsiella aerogenes, Enterobacter aerogenes, KUB No. 5658, AR Bank # 161
  MIC: 0.06 µg/mL (≈ 0.181 µM)
Klebsiella aerogenes, Enterobacter aerogenes, KUB No. 5777, AR Bank # 431
  MIC: 1 µg/mL (≈ 3.02 µM)
Klebsiella oxytoca, KUB No. 5644, AR Bank # 147
  MIC: ≤ 0.03 µg/mL
Klebsiella oxytoca, KUB No. 5771, AR Bank # 375
  MIC: ≤ 0.03 µg/mL
Klebsiella ozaenae, KUB No. 5548, AR Bank# 51
  MIC: > 64 µg/mL
Klebsiella pnemnonine, KUB No. 5758, AR Bank # 362
  MIC: > 64 µg/mL
Klebsiella pneumoniae, KUB No. 55, AR Bank# 47
  MIC: > 64 µg/mL
Klebsiella pneumoniae, KUB No. 5531, AR Bank# 34
  MIC: 0.5 µg/mL (≈ 1.51 µM)
Klebsiella pneumoniae, KUB No. 5537, AR Bank# 40
  MIC: > 64 µg/mL
Klebsiella pneumoniae, KUB No. 5540, AR Bank# 43
  MIC: 4 µg/mL (≈ 12.1 µM)
Klebsiella pneumoniae, KUB No. 5541, AR Bank# 44
  MIC: > 64 µg/mL
Klebsiella pneumoniae, KUB No. 5543, AR Bank# 46
  MIC: > 64 µg/mL
Klebsiella pneumoniae, KUB No. 5546, AR Bank# 49
  MIC: > 64 µg/mL
Klebsiella pneumoniae, KUB No. 5563, AR Bank # 66
  MIC: > 64 µg/mL
Klebsiella pneumoniae, KUB No. 5565, AR Bank # 68
  MIC: > 64 µg/mL
Klebsiella pneumoniae, KUB No. 5572, AR Bank # 75
  MIC: > 64 µg/mL
Klebsiella pneumoniae, KUB No. 5573, AR Bank # 76
  MIC: 0.5 µg/mL (≈ 1.51 µM)
Klebsiella pneumoniae, KUB No. 5576, AR Bank # 79
  MIC: > 64 µg/mL
Klebsiella pneumoniae, KUB No. 5584, AR Bank # 87
  MIC: > 64 µg/mL
Klebsiella pneumoniae, KUB No. 5594, AR Bank # 97
  MIC: > 64 µg/mL
Klebsiella pneumoniae, KUB No. 5595, AR Bank # 98
  MIC: > 64 µg/mL
Klebsiella pneumoniae, KUB No. 5603, AR Bank # 106
  MIC: > 64 µg/mL
Klebsiella pneumoniae, KUB No. 5604, AR Bank # 107
  MIC: > 64 µg/mL
Klebsiella pneumoniae, KUB No. 5606, AR Bank # 109
  MIC: > 64 µg/mL
Klebsiella pneumoniae, KUB No. 5614, AR Bank # 117
  MIC: 8 µg/mL (≈ 24.1 µM)
Klebsiella pneumoniae, KUB No. 5617, AR Bank # 120
  MIC: > 64 µg/mL
Klebsiella pneumoniae, KUB No. 5622, AR Bank # 125
  MIC: > 64 µg/mL
Klebsiella pneumoniae, KUB No. 5626, AR Bank # 129
  MIC: > 64 µg/mL
Klebsiella pneumoniae, KUB No. 5635, AR Bank # 138
  MIC: > 64 µg/mL
Klebsiella pneumoniae, KUB No. 5637, AR Bank # 140
  MIC: > 64 µg/mL
Klebsiella pneumoniae, KUB No. 5638, AR Bank # 141
  MIC: > 64 µg/mL
Klebsiella pneumoniae, KUB No. 5643, AR Bank # 146
  MIC: > 64 µg/mL
Klebsiella pneumoniae, KUB No. 5645, AR Bank # 148
  MIC: > 64 µg/mL
Klebsiella pneumoniae, KUB No. 5650, AR Bank # 153
  MIC: > 64 µg/mL
Klebsiella pneumoniae, KUB No. 5657, AR Bank # 160
  MIC: 0.06 µg/mL (≈ 0.181 µM)
Klebsiella pneumoniae, KUB No. 5757, AR Bank # 361
  MIC: > 64 µg/mL
